Holding throughout (format): biochemical
Assay [1] deals with T1, JAK2 (catalytic domain, His-tag) (Homo sapiens, UniProt O60674).
T1 construct: All four purified enzymes contain only the catalytic domain; His (N); purchased Carna Biosciences, Inc; host or cells: baculovirus expression system
Briefly: JAK kinase assay (HTRF, phosphorylation of TK substrate-biotin), JAK2. To be noted: ATP at Km (4 μM). Summed up:
(§1)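 EC50 values come from HTRF signal of phospho-peptide detected by STK Ab Cryptate and Streptavidin-XL665 after overnight incubation. Reactions ran 20-30 min at RT in Hepes pH 7.0, 0.01% BSA, 1 mM DTT, with ATP at Km: 7, 4, 2 and 13 μM for JAK1, JAK2, JAK3, TYK2.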

Assay [2] deals with T2, JAK1 (aa 850-1154, catalytic domain, GST-tag) (Homo sapiens, UniProt P23458).
T2 construct: JAK1 (aa 850-1154) and TYK2 (aa 871-1187) are expressed with an N-terminally fused GST-tag; GST (N); purchased Carna Biosciences, Inc; host or cells: baculovirus expression system
T2 sequence (P23458 850-1154): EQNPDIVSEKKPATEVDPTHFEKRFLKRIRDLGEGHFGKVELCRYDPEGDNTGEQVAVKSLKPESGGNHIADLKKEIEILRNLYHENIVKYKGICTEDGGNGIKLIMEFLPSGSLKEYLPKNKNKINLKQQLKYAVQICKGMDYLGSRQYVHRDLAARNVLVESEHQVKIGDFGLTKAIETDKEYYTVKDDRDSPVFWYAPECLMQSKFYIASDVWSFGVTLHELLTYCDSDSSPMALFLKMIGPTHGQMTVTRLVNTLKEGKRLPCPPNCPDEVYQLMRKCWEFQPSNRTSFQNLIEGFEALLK
Briefly: JAK kinase assay (HTRF, phosphorylation of TK substrate-biotin), JAK1. As to conditions: ATP at Km (7 μM). The essentials:
as §1

In assay [3] the target is T3, TYK2 (aa 871-1187, catalytic domain, GST-tag) (Homo sapiens, UniProt P29597).
T3 construct: JAK1 (aa 850-1154) and TYK2 (aa 871-1187) are expressed with an N-terminally fused GST-tag; GST (N); purchased Carna Biosciences, Inc; host or cells: baculovirus expression system
T3 sequence (P29597 871-1187): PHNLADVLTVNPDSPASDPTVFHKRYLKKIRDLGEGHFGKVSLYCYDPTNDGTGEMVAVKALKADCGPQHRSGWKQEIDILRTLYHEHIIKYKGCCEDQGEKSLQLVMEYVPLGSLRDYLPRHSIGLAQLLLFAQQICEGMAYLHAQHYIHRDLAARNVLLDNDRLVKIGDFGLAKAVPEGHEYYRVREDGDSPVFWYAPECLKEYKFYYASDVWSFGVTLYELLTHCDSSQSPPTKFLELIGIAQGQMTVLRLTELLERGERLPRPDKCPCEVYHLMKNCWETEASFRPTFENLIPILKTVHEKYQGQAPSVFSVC
Briefly: JAK kinase assay (HTRF, phosphorylation of TK substrate-biotin), TYK2. As to conditions: ATP at Km (13 μM). The essentials: as §1

The target of assay [4] is T4, JAK3 (catalytic domain, His-tag) (Homo sapiens, UniProt P52333).
T4 construct: All four purified enzymes contain only the catalytic domain; His (N); purchased Carna Biosciences, Inc; host or cells: baculovirus expression system
T4 sequence (P52333 822-1111 limits assumed): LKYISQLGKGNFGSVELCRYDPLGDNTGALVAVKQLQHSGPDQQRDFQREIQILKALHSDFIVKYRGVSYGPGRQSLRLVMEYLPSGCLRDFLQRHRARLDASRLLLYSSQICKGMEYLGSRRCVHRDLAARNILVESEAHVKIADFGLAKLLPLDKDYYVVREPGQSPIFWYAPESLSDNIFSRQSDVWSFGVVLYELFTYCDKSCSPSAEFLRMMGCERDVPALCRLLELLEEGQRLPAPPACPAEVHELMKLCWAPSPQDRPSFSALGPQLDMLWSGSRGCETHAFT
Briefly: JAK kinase assay (HTRF, phosphorylation of TK substrate-biotin), JAK3. As to conditions: ATP at Km (2 μM). Summed up: as §1
On the technique in general: In TR-FRET formats the signal depends on donor and acceptor labels being close together.

Setting [5] is: HTRF assay, read-out: JAK2 kinase inhibitory activity (EC50 indicator).
[6] abbreviates: HTRF assay, read-out: JAK1 kinase inhibitory activity (EC50 indicator).
Where [7] appears, read: HTRF assay, read-out: TYK2 kinase inhibitory activity (EC50 indicator).
Where [8] appears, read: HTRF assay, read-out: JAK3 kinase inhibitory activity (EC50 indicator).
Setting [9] is: read-out: JAK2 kinase inhibitory activity (EC50 indicator).
Setting [10] is: read-out: JAK1 kinase inhibitory activity (EC50 indicator).
Setting [11] is: read-out: TYK2 kinase inhibitory activity (EC50 indicator).
The mark [12] stands for this setting: read-out: JAK3 kinase inhibitory activity (EC50 indicator).

pEC50: −log10 of the molar value. Read-outs that look alike come from different tables or passages of the source. Some results are limits rather than exact numbers.

T1 sequence (O60674 849-1124 limits assumed): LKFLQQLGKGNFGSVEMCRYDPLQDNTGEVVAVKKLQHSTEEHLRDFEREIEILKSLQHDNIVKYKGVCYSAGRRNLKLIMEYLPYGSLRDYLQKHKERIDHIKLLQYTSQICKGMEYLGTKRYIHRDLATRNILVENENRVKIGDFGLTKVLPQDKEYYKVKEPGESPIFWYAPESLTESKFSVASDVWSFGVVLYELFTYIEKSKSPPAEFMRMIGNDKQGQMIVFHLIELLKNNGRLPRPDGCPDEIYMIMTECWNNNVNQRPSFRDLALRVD

The pEC50 is the negative decadic logarithm of the EC50, by convention in mol/L. As for `CC(C)S(=O)(=O)Nc1ccc(C(=O)N2CCN(c3ncnc4[nH]ccc34)CC23CC3)cc1` [Example 432, Propane-2-sulfonic acid {4-[7-(7H-pyrrolo[2,3-d]pyrimidin-4-yl)-4,7-diaza-spiro[2.5]octane-4-carbonyl]-phenyl}-amide], the pEC50 in assay [1] (setting [5]) was above 7.00; in assay [2] (setting [6]) it was above 7.00; in assay [3] (setting [7]), 6.30 to 7.00; in assay [4] (setting [8]), above 7.00.
With `CSCCC(=O)N1CCN(c2ncnc3[nH]ccc23)CC12CC2` [Example 455, 3-Methylsulfanyl-1-[7-(7H-pyrrolo[2,3-d]pyrimidin-4-yl)-4,7-diaza-spiro[2.5]oct-4-yl]-propan-1-one], the pEC50 in assay [1] (HTRF assay, read-out: JAK2 kinase inhibitory activity (EC50)) is above 7.00; in assay [2] (HTRF assay, read-out: JAK1 kinase inhibitory activity (EC50)), above 7.00; in assay [3] (HTRF assay, read-out: TYK2 kinase inhibitory activity (EC50)) it was 6.30 to 7.00; in assay [4] (HTRF assay, read-out: JAK3 kinase inhibitory activity (EC50)), above 7.00.
For the compound `Cc1c[nH]c2ncnc(N3CCN(C(=O)Cc4ccc(CC#N)cc4)C4(CC4)C3)c12` [Example 328, (4-{2-[7-(5-Methyl-7H-pyrrolo[2,3-d]pyrimidin-4-yl)-4,7-diaza-spiro[2.5]oct-4-yl]-2-oxo-ethyl}-phenyl)-acetonitrile], the pEC50 in assay [1] (setting [5]) is below 6.30; in assay [2] (setting [6]), below 6.30; in assay [3] (setting [7]) it was below 6.30; in assay [4] (setting [8]), 6.30 to 7.00.
In the case of `Cc1ccc2sc(C(=O)N3CCN(c4ncnc5[nH]ccc45)CC34CC4)cc2c1` [Example 297, (5-Methyl-benzo[b]thiophen-2-yl)-[7-(7H-pyrrolo[2,3-d]pyrimidin-4-yl)-4,7-diaza-spiro[2.5]oct-4-yl]-methanone], the pEC50 is above 7.00 in assay [1] (setting [5]), above 7.00 in assay [2] (setting [6]), 6.30 to 7.00 in assay [3] (setting [7]) and 6.30 to 7.00 in assay [4] (setting [8]).
In the case of `COc1cnc2[nH]ccc2c1N1CCN(C(=O)c2ccc(C#N)c(F)c2)C2(CC2)C1` [Example 292, 2-Fluoro-4-[7-(5-methoxy-1H-pyrrolo[2,3-b]pyridin-4-yl)-4,7-diaza-spiro[2.5]octane-4-carbonyl]-benzonitrile], the pEC50 in assay [1] (setting [5]) is 6.30 to 7.00; in assay [2] (setting [6]), below 6.30; in assay [3] (setting [7]) it was below 6.30; in assay [4] (setting [8]) it was 6.30 to 7.00.
Consider `N#Cc1ccc(C(=O)C(=O)N2CCN(c3ncnc4[nH]ccc34)CC23CC3)cc1` [Example 381, 4-{2-Oxo-2-[7-(7H-pyrrolo[2,3-d]pyrimidin-4-yl)-4,7-diaza-spiro[2.5]oct-4-yl]-acetyl}-benzonitrile], for which the pEC50 in assay [1] (setting [5]) was above 7.00; in assay [2] (setting [6]), above 7.00; in assay [3] (setting [7]), 6.30 to 7.00; in assay [4] (setting [8]), 6.30 to 7.00.
On to `COC(=O)c1cc2c(N3CCN(C(=O)C4(C#N)CC4)C4(CC4)C3)ncnc2[nH]1` [Example 336, 4-[4-(1-Cyano-cyclopropanecarbonyl)-4,7-diaza-spiro[2.5]oct-7-yl]-7H-pyrrolo[2,3-d]pyrimidine-6-carboxylic acid methyl ester], for which the pEC50 in assay [1] (setting [5]), in assay [2] (setting [6]), in assay [3] (setting [7]) and in assay [4] (setting [8]) was below 6.30 in each case.
Turning to `CS(=O)(=O)c1ccc(C(=O)N2C3CCC2CN(c2ncnc4[nH]ccc24)C3)cc1F` [Example 131, (3-Fluoro-4-methanesulfonyl-phenyl)-[3-(7H-pyrrolo[2,3-d]pyrimidin-4-yl)-3,8-diaza-bicyclo[3.2.1]oct-8-yl]-methanone], the pEC50 in assay [1] (setting [9]) was above 7.00; in assay [2] (setting [10]), above 7.00; in assay [3] (setting [11]) it was 6.30 to 7.00; in assay [4] (setting [12]), 6.30 to 7.00.
As for `O=C(c1csc2ccccc12)N1CCN(c2ncnc3[nH]ccc23)CC12CC2` [Example 214, Benzo[b]thiophen-3-yl-[7-(7H-pyrrolo[2,3-d]pyrimidin-4-yl)-4,7-diaza-spiro[2.5]oct-4-yl]-methanone], the negative-log EC50 (pEC50) in assay [1] (setting [5]), in assay [2] (setting [6]), in assay [3] (setting [7]) and in assay [4] (setting [8]) was above 7.00 throughout.
`O=C(Cc1cc(Br)cs1)N1CCN(c2ncnc3[nH]ccc23)CC12CC2` [Example 387, 2-(4-Bromo-thiophen-2-yl)-1-[7-(7H-pyrrolo[2,3-d]pyrimidin-4-yl)-4,7-diaza-spiro[2.5]oct-4-yl]-ethanone]: the pEC50 in assay [1] (setting [5]) is above 7.00; in assay [2] (setting [6]) it was above 7.00; in assay [3] (setting [7]), 6.30 to 7.00; in assay [4] (setting [8]) it was above 7.00.
Take `COc1cnc2[nH]ccc2c1N1CCN(C(=O)c2cc3ccccc3[nH]2)C2(CC2)C1` [Example 288, (1H-Indol-2-yl)-[7-(5-methoxy-1H-pyrrolo[2,3-b]pyridin-4-yl)-4,7-diaza-spiro[2.5]oct-4-yl]-methanone]: the pEC50 was below 6.30 in assay [1] (setting [5]), below 6.30 in assay [2] (setting [6]), below 6.30 in assay [3] (setting [7]) and 6.30 to 7.00 in assay [4] (setting [8]).
For `O=C(c1cccs1)N1CCN(c2ncnc3[nH]ccc23)CC12CC2` [Example 211, [7-(7H-Pyrrolo[2,3-d]pyrimidin-4-yl)-4,7-diaza-spiro[2.5]oct-4-yl]-thiophen-2-yl-methanone], the pEC50 was above 7.00 in assay [1] (setting [5]), above 7.00 in assay [2] (setting [6]), 6.30 to 7.00 in assay [3] (setting [7]) and above 7.00 in assay [4] (setting [8]).
Consider `C#CCOC(=O)N1[C@@H]2CC[C@H]1CN(c1ncnc3[nH]ccc13)C2` [Example 59, 3-(7H-Pyrrolo[2,3-d]pyrimidin-4-yl)-3,8-diazabicyclo[3.2.1]octane-8-carboxylic acid prop-2-ynyl ester], for which the pEC50 in assay [1] (setting [9]) was 6.30 to 7.00; in assay [2] (setting [10]), 6.30 to 7.00; in assay [3] (setting [11]), below 6.30; in assay [4] (setting [12]), 6.30 to 7.00.
`O=C(c1ccc(OC(F)(F)F)cc1)N1[C@@H]2CC[C@@H]1CN(c1ncnc3[nH]ccc13)C2` [Example 251, [3-(7H-Pyrrolo[2,3-d]pyrimidin-4-yl)-3,8-diaza-bicyclo[3.2.1]oct-8-yl]-(4-trifluoromethoxy-phenyl)-methanone]: the pEC50 in assay [1] (setting [5]) was 6.30 to 7.00; in assay [2] (setting [6]), above 7.00; in assay [3] (setting [7]) it was below 6.30; in assay [4] (setting [8]), 6.30 to 7.00.
As to `O=C(Cc1cccnc1)N1[C@@H]2CC[C@@H]1CN(c1ncnc3[nH]ccc13)C2` [Example 172, 2-Pyridin-3-yl-1-[3-(7H-pyrrolo[2,3-d]pyrimidin-4-yl)-3,8-diaza-bicyclo[3.2.1]oct-8-yl]-ethanone], the pEC50 in assay [1] (setting [9]) is 6.30 to 7.00; in assay [2] (setting [10]), below 6.30; in assay [3] (setting [11]), below 6.30; in assay [4] (setting [12]), below 6.30.
`CNS(=O)(=O)c1ccc(C(=O)N2CCN(c3ncnc4[nH]ccc34)CC23CC3)cc1` [Example 104, N-Methyl-4-[7-(7H-pyrrolo[2,3-d]pyrimidin-4-yl)-4,7-diaza-spiro[2.5]octane-4-carbonyl]-benzenesulfonamide]: the negative-log EC50 (pEC50) in assay [1] (setting [9]), in assay [2] (setting [10]), in assay [3] (setting [11]) and in assay [4] (setting [12]) was above 7.00 each time.
For the compound `N#CCc1cccc(CC(=O)N2CCN(c3ncnc4[nH]cc(Cl)c34)CC23CC3)c1` [Example 318, (3-{2-[7-(5-Chloro-7H-pyrrolo[2,3-d]pyrimidin-4-yl)-4,7-diaza-spiro[2.5]oct-4-yl]-2-oxo-ethyl}-phenyl)-acetonitrile], the negative logarithm of the EC50 (pEC50) in assay [1] (setting [5]), in assay [2] (setting [6]), in assay [3] (setting [7]) and in assay [4] (setting [8]) was below 6.30 throughout.
On to `O=C(c1cccc2cccnc12)N1CCN(c2ncnc3[nH]ccc23)CC12CC2` [Example 164, [7-(7H-Pyrrolo[2,3-d]pyrimidin-4-yl)-4,7-diaza-spiro[2.5]oct-4-yl]-quinolin-8-yl-methanone], for which the pEC50 in assay [1] (setting [9]) is above 7.00; in assay [2] (setting [10]), 6.30 to 7.00; in assay [3] (setting [11]) it was below 6.30; in assay [4] (setting [12]) it was 6.30 to 7.00.
Regarding `Cc1c[nH]c2ncnc(N3CCN(C(=O)c4cccc(C#N)c4)C4(CC4)C3)c12` [Example 119, 3-[7-(5-Methyl-7H-pyrrolo[2,3-d]pyrimidin-4-yl)-4,7-diaza-spiro[2.5]octane-4-carbonyl]-benzonitrile], the pEC50 in assay [1] (setting [9]), in assay [2] (setting [10]), in assay [3] (setting [11]) and in assay [4] (setting [12]) was below 6.30 throughout.

Source of the values: patent US9346809B2 (LEO PHARMA A/S, priority 2009, dated 2016).
